Assay [1] relates to Spared Nerve Injury (SNI) rats. The assay is described as follows: Spared Nerve Injury (SNI) model, von Frey. It is filed as in vivo, rat. How it is done:
All animal experiments were carried out according to the Guide for the Care and Use of Laboratory Animals (2011 edition) and approved by the Israel National Institutional Animal Care and Use Committee (IACUC). Young adult male SD rats (Envigo RMS, Israel), were used for in vivo efficacy: Spared Nerve Injury (SNI), Distal Tibial Injury (DTI) and Post-operative Pain (POP), 200-220 grams, Chronic Post-Ischemia Pain (CPIP) 275-325 grams, Monosodium iodoacetate-induced osteoarthritis (MIA-OA) 180-220 grams; for in vivo safety: 200-250 grams at study initiation. […] The health status of the animals used in this study was examined upon their arrival. Only animals in good health were acclimatized to laboratory conditions and were used in the studies. All studies were performed following at least five days of animal acclimation. During acclimation and throughout the entire study duration, animals were housed within a limited-access rodent facility and kept in groups with a maximum of 2-3 rats per polypropylene cage. The cages were fitted with solid bottoms and filled with sterile wood shavings as bedding material. Animals were provided ad libitum with a commercial, sterile rodent diet and had free access to drinking water that was supplied to each cage via polyethylene bottles with stainless steel sipper tubes. A feed lot analysis of the diet batch used in the study was included in the archives with the study data. Water was monitored periodically. Plastic cylinders for playing and hiding and wooden balls or sticks were added to the cages for environmental enrichment.
SNI: The SNI procedure consisted of ligating and dissecting the tibial and common peroneal nerves, thus sparing the sural nerve. Prior to surgery, a dose of 0.03 mg/kg buprenorphine (Temgesic®) was administered to animals as a prophylaxis to alleviate the operative and postoperative pain unrelated to neuropathy. Next, animals were anesthetized with a combination of medetomidine/ketamine sodium IP. While under anesthesia a medio caudal incision of 4-5 mm parallel to the left femur was cut on shaved and disinfected skin. The sciatic nerve was exposed from underneath the muscle layer and isolated gently from the surrounding connective tissue, using curved and blunt forceps. The tibial and common peroneal nerves were first tightly ligated with double knot of 6-0 silk suture, proximally and immediately distal to the sciatic bifurcation. Thereafter, the nerves which run as a pair as physically attached to each other were cut at sites close to the ligatures, thereby removing a length of approximately 0.5 mm of the nerves, necessary to avoid the formation of any re-connection to the nerves. This procedure led to complete denervation of areas of tibial and peroneal innervation in the plantar paw, while neuropathy was developed upon the sural territories. Special care was taken not to manipulate the sural nerve, which thus was left intact. The muscle layers and skin were sutured, and animals were allowed to recover. 0.03 mg/kg buprenorphine SC was administered on postoperative days 1-2, every 12 hours, starting from the evening of Day 0. Rehydration with 4 ml of sterile saline IP was provided directly after the surgery, continuing twice a day for 7 days. The sural nerve innervates the lateral longitudinal third of the plantar paw and therefore, mechanical sensitivity was assessed in this area.
The selection of animals was performed on day 13 post-operation before animals were placed in their experimental groups. Animals with a pain threshold of <4 grams for an operated leg following Von Frey testing were included in the study. To form homogenous treatment groups, all the selected animals were grouped using a random sampling method on study day 13, to form groups with similar pain threshold mean. For blinding purposes, the researcher who dosed the animals with test items was different than the researcher who conducted the VF tests. […]

Assay [2] deals with T1, CYP1A2 (Homo sapiens, UniProt P05177).
T1 construct: pre-incubation of the human liver microsomes with the test compound; tissue Corning; host or cells: human liver microsomes
T1 sequence (P05177 1-516): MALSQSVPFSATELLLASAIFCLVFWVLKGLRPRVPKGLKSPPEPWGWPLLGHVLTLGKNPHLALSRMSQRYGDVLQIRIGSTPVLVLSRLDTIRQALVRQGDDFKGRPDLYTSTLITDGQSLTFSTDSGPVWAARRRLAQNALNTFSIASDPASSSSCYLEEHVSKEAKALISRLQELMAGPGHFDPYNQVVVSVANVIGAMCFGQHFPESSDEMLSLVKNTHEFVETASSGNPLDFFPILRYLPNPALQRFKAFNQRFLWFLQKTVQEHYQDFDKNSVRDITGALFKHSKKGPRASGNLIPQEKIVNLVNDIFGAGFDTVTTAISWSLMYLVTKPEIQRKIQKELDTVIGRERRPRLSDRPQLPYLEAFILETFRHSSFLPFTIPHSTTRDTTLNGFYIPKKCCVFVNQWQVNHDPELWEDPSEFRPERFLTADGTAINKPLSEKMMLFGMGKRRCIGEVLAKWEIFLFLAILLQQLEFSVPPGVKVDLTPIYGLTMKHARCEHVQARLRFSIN
Kind of assay: CYP inhibition / time-dependent inhibition, CYP1A2_Phenacetin. The format is in vitro ADME. To be noted: role: inhibitor. How it is done: The time-dependent inactivation potency of the test compound to CYP enzymatic activities was assessed by the pre-incubation of the human liver microsomes with the test compound in the presence and absence of NADPH, followed by the incubation with the discrete marker substrates, as follows.
Pre-incubation with human liver microsomes (HLMs): The TDI inactivation potency on CYP enzymatic activities was evaluated through pre-incubation with HLMs (Corning). A liver microsome mixture at a concentration of 0.1 mg/mL, and the test compound at 8 different concentrations (0, 0.05, 0.165, 0.5, 1.65, 5.0, 16.5, or 50.0 μM) was warmed at 37° C. for 10 minutes. Concurrently, a set of known time-dependent inactivators was also prepared in duplicate for comparison. Following this, NADPH (1.0 mM) was added to one group (Group 1), and an equal volume of potassium phosphate buffer to the second group (Group 2), marking the beginning of a 30-minute pre-incubation at 37° C.
Incubation: After pre-incubation, the marker substrate, or marker substrate plus NADPH was added to the mixture, thereby initiating the incubation. The duration of the incubation was dependent on the type of CYP isoform being evaluated. For example, with the CYP3A isoform, the mixture was incubated over 3 minutes utilizing midazolam as the marker substrate (2.0 μM), verapamil as the standard inactivator (3.5 μM).
Termination of Reaction: Following the incubation, ice-cooled acetonitrile containing the internal standard (IS) was added to halt the reactions. Metabolites generated from the marker substrates were then measured via LC-MS/MS, assessed based on peak area ratios of the analyte to IS.

Assay [3] deals with T2, opioid delta receptor (Homo sapiens, UniProt P41143).
T2 construct: Eurofins DiscoverX, USA
The assay is described as follows: Functional selectivity panel, opioid delta receptor. It is filed as biochemical. The protocol: A broad panel of 78 recombinant targets was tested for pharmacologic activity in vitro through a variety of functional assays (Eurofins DiscoverX, USA), as part of the National Institute of Neurological Disorders and Stroke (NINDS) Preclinical Screening Platform for Pain (PSPP) program. The biological targets for the in vitro profiling have been selected based on avoiding opioid receptor stimulation and targets known to be associated with adverse events or targeted by drugs of abuse. […] For each test, a reference compound was evaluated at the target of interest as a positive control.

Where two headings read alike, the source gives them in different places.

The minimal effective dose is the smallest amount tested that counted as effective. As usually defined, the IC50 is the concentration needed to halve the response being measured.

T2 sequence (P41143 whole entry): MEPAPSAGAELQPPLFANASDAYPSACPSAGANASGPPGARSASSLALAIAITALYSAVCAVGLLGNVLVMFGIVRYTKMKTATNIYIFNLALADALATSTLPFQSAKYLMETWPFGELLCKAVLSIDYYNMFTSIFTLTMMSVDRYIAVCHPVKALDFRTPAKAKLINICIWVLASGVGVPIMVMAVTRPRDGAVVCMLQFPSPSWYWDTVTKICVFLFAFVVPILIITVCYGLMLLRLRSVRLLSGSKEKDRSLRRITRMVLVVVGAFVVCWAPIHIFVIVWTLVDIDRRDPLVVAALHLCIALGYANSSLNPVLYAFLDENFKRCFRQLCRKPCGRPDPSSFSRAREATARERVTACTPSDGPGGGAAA

Regarding `O=C(Cc1nccc(-n2cc(Cl)c3cc(Cl)cc(Cl)c32)n1)NC1COCC1O` (centres unmarked) [Compound 760], the “Pain relief in SNI” value in assay [1] (3-30 mg/kg PO) is “pain relief comparable to Pregabalin's high and impairing dose”. Besides, the minimal effective dose in assay [1] (Rattus norvegicus, po) was in the range of 3 to 30 mg/kg. Further, in assay [2] (Table 9, read-out: CYP inhibition IC50 CYP1A2), the IC50 is over 50 µM. In addition, in assay [3] (up to 10 micromolar), the “Effect on Opioid-delta” value was “no effect”.

Take `O=C(Cc1cncc(-n2cc(Cl)c3cc(Cl)cc(Cl)c32)c1)N[C@@H]1COC[C@H]1O` [Compound 661]: the “PWT efficacy” value in assay [1] (2 mg/kg PO) is “although not reaching statistical significance, showed an efficacious trend”; in assay [1] (20 mg/kg PO, up to 8 hour post-dose), “remained statistically significant up to 8 hour post-dose”. Further, in assay [1] (20 mg/kg PO, 4 hour post-dose), the “Reversal of PWT” value was 53%. In addition, the “Reversal of mechanical PWT” value in assay [1] (100 mg/kg oral, 6 hour post-dose) turned out to be 47.2%. The IC50 in assay [2] ((+)NADPH pre-incubation, substrate phenacetin, read-out: IC50 (+)NADPH CYP1A2_Phenacetin) is over 50 µM; in assay [2] ((−)NADPH pre-incubation, substrate phenacetin, read-out: IC50 (−)NADPH CYP1A2_Phenacetin), over 50 µM; in assay [3], 10 µM.

Source of the values: US20260327211A1, “MODULATORS OF A POTASSIUM CHANNEL AND OF TRPV1 CHANNEL AND USES THEREOF” (Bsense Bio Therapeutics Ltd., priority 2023, published 2026).
